Where “and” joins values, the source holds several entries; their conditions need not be identical. Equal entries are not always repeated. Inconclusive results and toxic doses are left out. No stated cut-off is given here; in the data, active means T/C of 150% or more; inactive means T/C below 125%.
System: L1210 leukemia ip in BDF1 mice, survival T/C
Test: NCI In Vivo Anticancer Drug Screen. Data for tumor model L1210 Leukemia (intraperitoneal) in B6D2F1 (BDF1) mice
Details: endpoint: mean survival time, higher = longer survival
In short: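 Transplantable tumor model; survival measured in treated vs vehicle control mice. Value = treated/control.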

[1] = dose: 100.0 mg/kg/injection, schedule: Q04DX003 (ip), vehicle: gum acacia
[2] = dose: 200.0 mg/kg/injection, schedule: Q04DX003 (ip), vehicle: gum acacia
[3] = dose: 400.0 mg/kg/injection, schedule: Q04DX003 (ip), vehicle: gum acacia
[4] = dose: 100.0 mg/kg/injection, schedule: Q04DX002 (ip), vehicle: saline with Tween-80
[5] = dose: 200.0 mg/kg/injection, schedule: Q04DX002 (ip), vehicle: saline with Tween-80
[6] = dose: 100.0 mg/kg/injection, schedule: Q01DX001 (ip), vehicle: saline
[7] = dose: 200.0 mg/kg/injection, schedule: Q01DX001 (ip), vehicle: saline
[8] = dose: 400.0 mg/kg/injection, schedule: Q01DX001 (ip), vehicle: saline
[9] = dose: 50.0 mg/kg/injection, schedule: Q01DX001 (ip), vehicle: carboxymethylcellulose (CMC)
[10] = dose: 100.0 mg/kg/injection, schedule: Q01DX001 (ip), vehicle: carboxymethylcellulose (CMC)
[11] = dose: 200.0 mg/kg/injection, schedule: Q01DX001 (ip), vehicle: carboxymethylcellulose (CMC)
[12] = dose: 400.0 mg/kg/injection, schedule: Q01DX001 (ip), vehicle: carboxymethylcellulose (CMC)
[13] = dose: 100.0 mg/kg/injection, schedule: Q01DX009 (ip), vehicle: saline with Tween-80
[14] = dose: 100.0 mg/kg/injection, schedule: Q04DX003 (ip), vehicle: saline with Tween-80
[15] = dose: 200.0 mg/kg/injection, schedule: Q01DX009 (ip), vehicle: saline with Tween-80
[16] = dose: 200.0 mg/kg/injection, schedule: Q04DX003 (ip), vehicle: saline with Tween-80
[17] = dose: 400.0 mg/kg/injection, schedule: Q01DX009 (ip), vehicle: saline with Tween-80
[18] = dose: 400.0 mg/kg/injection, schedule: Q04DX003 (ip), vehicle: saline with Tween-80
[19] = dose: 50.0 mg/kg/injection, schedule: Q01DX001 (ip), vehicle: saline
[20] = dose: 100.0 mg/kg/injection, schedule: Q04DX003 (ip), vehicle: Klucel (hydroxypropylcellulose) (HPC)
[21] = dose: 200.0 mg/kg/injection, schedule: Q04DX003 (ip), vehicle: Klucel (hydroxypropylcellulose) (HPC)
[22] = dose: 400.0 mg/kg/injection, schedule: Q04DX003 (ip), vehicle: Klucel (hydroxypropylcellulose) (HPC)

Measured: T/C

Oc1ccccc1C=NCCCN=Cc1ccccc1O
inactive: dose: 100.0 mg/kg/injection, schedule: Q01DX009 (ip), vehicle: gum acacia 104 % of control | [1] 98 % of control | dose: 200.0 mg/kg/injection, schedule: Q01DX009 (ip), vehicle: gum acacia 101 % of control | [2] 95 % of control | dose: 400.0 mg/kg/injection, schedule: Q01DX009 (ip), vehicle: gum acacia 101 % of control | [3] 98 % of control

OCc1c2ccccc2cc2ccccc12
inactive: dose: 100.0 mg/kg/injection, schedule: Q01DX001 (ip), vehicle: saline with Tween-80 93 % of control | dose: 200.0 mg/kg/injection, schedule: Q01DX001 (ip), vehicle: saline with Tween-80 87 % of control | dose: 400.0 mg/kg/injection, schedule: Q01DX001 (ip), vehicle: saline with Tween-80 93 % of control

CC1(C)N=C(N)N=C(N)N1c1cccc(Oc2ccc(N)cc2)c1
inactive: dose: 25.0 mg/kg/injection, schedule: Q04DX003 (ip), vehicle: Klucel (hydroxypropylcellulose) (HPC) 103 % of control | dose: 50.0 mg/kg/injection, schedule: Q04DX003 (ip), vehicle: Klucel (hydroxypropylcellulose) (HPC) 110 % of control

CCOc1cccc(CCC(=O)O)c1
inactive: [1] 105 % of control | [2] 96 % of control | [3] 93 % of control

CCC1(C)C(=O)c2ccccc2N(C)C1=O (configuration not stated)
inactive: [4] 104 % of control | [5] 104 % of control

Nc1nc2n(O)cc(C(O)C(O)CO)nc-2c(=O)n1 (configuration not stated)
inactive: [6] 100 % of control | [7] 103 % of control | [8] 103 % of control

CN(C)Cc1cc(C(F)(F)F)ccc1C(O)(c1ccccc1)c1ccccc1
inactive: [9] 110 % of control | [10] 101 % of control | [11] 101 % of control | [12] 98 % of control

O=C(CCc1ccc(O)cc1)c1c(O)cc(O)cc1O
inactive: [6] 96 % of control | [7] 94 % of control | [8] 92 % of control

COc1ccc(OC(=O)Nc2c(C)cccc2C)cc1
inactive: [13] 95 % of control | [14] 98 % of control | [15] 91 % of control | [16] 105 % of control | [17] 94 % of control | [18] 100 % of control

NC(=S)N/N=C/c1cccnc1
inactive: dose: 25.0 mg/kg/injection, schedule: Q01DX009 (ip), vehicle: Klucel (hydroxypropylcellulose) (HPC) 92 % of control | dose: 50.0 mg/kg/injection, schedule: Q01DX009 (ip), vehicle: Klucel (hydroxypropylcellulose) (HPC) 87 % of control | dose: 50.0 mg/kg/injection, schedule: Q04DX002 (ip), vehicle: Klucel (hydroxypropylcellulose) (HPC) 98 % of control | dose: 100.0 mg/kg/injection, schedule: Q01DX009 (ip), vehicle: Klucel (hydroxypropylcellulose) (HPC) 89 % of control | dose: 100.0 mg/kg/injection, schedule: Q04DX002 (ip), vehicle: Klucel (hydroxypropylcellulose) (HPC) 95 % of control and 107 % of control | dose: 200.0 mg/kg/injection, schedule: Q04DX002 (ip), vehicle: Klucel (hydroxypropylcellulose) (HPC) 95 % of control

O=C1C(Cl)=C(Nc2ccc(Br)cc2)C(=O)C(Cl)=C1Nc1ccc(Br)cc1
inactive: [9] 92 % of control | [10] 92 % of control | [14] 98 % of control | [11] 86 % of control | [16] 95 % of control | [12] 90 % of control | [18] 103 % of control

COc1cc(C=Nc2ccc(-c3csc(COc4ccccc4)n3)c(Cl)c2)ccc1N(CCCl)CCCl
inactive: dose: 5.0 mg/kg/injection, schedule: Q01DX015 (ip), vehicle: carboxymethylcellulose (CMC) 111 % of control | dose: 10.0 mg/kg/injection, schedule: Q01DX015 (ip), vehicle: carboxymethylcellulose (CMC) 113 % of control | dose: 20.0 mg/kg/injection, schedule: Q01DX015 (ip), vehicle: carboxymethylcellulose (CMC) 104 % of control | dose: 44.0 mg/kg/injection, schedule: Q01DX015 (ip), vehicle: carboxymethylcellulose (CMC) 97 % of control | dose: 200.0 mg/kg/injection, schedule: Q01DX001 (sc), vehicle: carboxymethylcellulose (CMC) 118 % of control

O=C(CCCC(=O)N/N=C/c1ccc(Cl)cc1Cl)N/N=C\c1ccc(Cl)cc1Cl
inactive: [19] 97 % of control | [6] 97 % of control | [7] 93 % of control | [8] 97 % of control

COc1cc(-c2ccc(NC(=O)CC(C)=O)c(OC)c2)ccc1NC(=O)CC(C)=O
inactive: [13] 94 % of control | [14] 92 % of control | [15] 101 % of control | [16] 91 % of control | [17] 99 % of control | [18] 89 % of control

N#Cc1cc(-c2ccccc2)c[nH]c1=O
inactive: dose: 20.0 mg/kg/injection, schedule: Q01DX001 (ip), vehicle: Klucel (hydroxypropylcellulose) (HPC) 98 % of control | dose: 40.0 mg/kg/injection, schedule: Q01DX001 (ip), vehicle: Klucel (hydroxypropylcellulose) (HPC) 101 % of control | dose: 80.0 mg/kg/injection, schedule: Q01DX001 (ip), vehicle: Klucel (hydroxypropylcellulose) (HPC) 103 % of control | dose: 100.0 mg/kg/injection, schedule: Q01DX001 (ip), vehicle: Klucel (hydroxypropylcellulose) (HPC) 102 % of control

O=COC1CC2CC1C1CCCC21 (configuration not stated)
inactive: [14] 94 % of control | [16] 92 % of control

CSC(S(C)(=O)=O)S(C)(=O)=O
inactive: [14] 90 % of control | [16] 96 % of control | [18] 98 % of control

O=P1(CCc2ccccc2)CC(Br)C(Br)C1 (configuration not stated)
inactive: [20] 101 % of control | [21] 106 % of control | [22] 98 % of control

C[CH2][Sn]([CH2]c1ccccc1)([c]1ccccc1)[c]1ccccc1
inactive: [20] 95 % of control | [21] 101 % of control | [22] 93 % of control

O=C(CCCC(=O)N/N=C/c1cc(Cl)ccc1O)N/N=C\c1cc(Cl)ccc1O
inactive: [19] 98 % of control | [6] 93 % of control | [7] 96 % of control | [8] 98 % of control

C1N2CN3CN1CN(C2)C3 (tested in a mixture with another compound)
inactive: [14] 107 % of control | [16] 103 % of control | [18] 102 % of control

CCOC(=O)c1cccc(N(CCO)CCO)c1
inactive: [19] 103 % of control | [6] 97 % of control | [7] 103 % of control | [8] 103 % of control

O=C(Nc1ccccc1)N1CCN=C1C1CCCc2ccccc21 (configuration not stated)
inactive: [4] 89 % of control | [5] 89 % of control | dose: 400.0 mg/kg/injection, schedule: Q04DX002 (ip), vehicle: saline with Tween-80 86 % of control

CSc1nc(N(C)C)c2ncn(C3OC(C[N+](=O)[O-])C(OC(C)=O)C(OC(C)=O)C3OC(C)=O)c2n1 (configuration not stated)
inactive: dose: 50.0 mg/kg/injection, schedule: Q04DX002 (ip), vehicle: saline 89 % of control | dose: 100.0 mg/kg/injection, schedule: Q04DX002 (ip), vehicle: saline 112 % of control | dose: 200.0 mg/kg/injection, schedule: Q04DX002 (ip), vehicle: saline 94 % of control

— PubChem BioAssay AID248 (DTP/NCI, 2004)
